These results are taken from patent US11046684B2, “Compound for selectively inhibiting kinase and use thereof” (SHANGHAI ZHEYE BIOTECHNOLOGY LIMITED-LIABILITY COMPANY, priority 2017, dated 2021).

Data set [1] deals with SNU387. The data set is described as follows: HCC cell proliferation inhibition, SRB method. It is filed as cell-based. Particulars: Homo sapiens, SNU-387, 72 hours. As for the experimental part:
[Worded in the source for another cell line; this cell line is reported under the same test.] (§1) The inhibitory activities of the compounds of the examples on cell proliferation in vitro were tested using five hepatocellular carcinoma cell lines: Hep3B, Huh7, JHH-7, SK-hep-1, SNU423. The above cells were all from ATCC (American Type Culture Collection). Among them, Hep3B, Huh-7, JHH-7 these three cell lines all have FGF19 gene amplification (increased copy number) and increased mRNA expression level, as well as high level expression of FGFR4 and KLB gene mRNA; SK-hep-1, SNU423 cell lines have no FGF19 gene amplification and the expression level of FGF19 mRNA was very low (Barretina J, Caponigro G, et al. Nature 2012; 483: 603-7.).
(§2) Cell proliferation was measured using the SRB (Sulforhodamine-B, sulforhodamine B) method. The cells were cultured to a cell fusion of more than 90% and then trypsinized. After counting, the cells were inoculated into 96-well plates at 6000 cells/well. After adherent culture overnight, the test compound was dissolved in DMSO and diluted with complete medium, added to the culture wells to form a 5-fold dilution of 10 concentration gradients from 10 μM. The cells were incubated for further 72 hours, 50 μl of 50% trichloroacetic acid was added to each well and fixed at 4° C. for 1 hour. The trichloroacetic acid in each well was discarded and washed 5 times with 300 μl of double distilled water. After drying at room temperature, 50 μl of 0.4% SRB dye solution (1% acetic acid/0.4% SRB) was added to each well to react for 15 min. The dye solution of each well was discarded, washed 6-7 times with 1% acetic acid, and dried at room temperature. 200 μl of 10 mM Tris solution (pH=10.5) was added to each well and shaken until the solution was clear. The absorbance at 490 nm of each well was measured by a microplate reader. The reading of the wells where the concentration of the test compound was 0 was used as a control, and fitted with Origin 7.5 software, the IC50 value (nM) of the test substance for inhibiting cell proliferation was calculated.
(§3) The antitumor cell proliferation activities of the compounds of the present invention were measured by the above test, and the measured IC50 (nM) values are shown in Table 2.

Data set [2] has as its system Hep3B. The data set is described as follows: HCC cell proliferation inhibition, SRB method. It is filed as cell-based. The conditions noted are these: Homo sapiens, 72 hours. As to the method:
as §1, §2, §3

The test system of data set [3] is HUH-7. Description: HCC cell proliferation inhibition, SRB method. It counts as cell-based. Particulars: Homo sapiens, 72 hours. As for the experimental part:
as §1, §2, §3
For orientation: In SRB staining, fixed cells bind dye roughly in proportion to their protein.

The subject of data set [4] is SK-hep-1. Description: HCC cell proliferation inhibition, SRB method. It is filed as cell-based. The conditions noted are these: Homo sapiens, SK-HEP1, 72 hours. As for the experimental part:
as §1, §2, §3

In data set [5] the test system is JHH-7. Description: HCC cell proliferation inhibition, SRB method. It is filed as cell-based. Particulars: JHH7, 72 hours. As for the experimental part:
as §1, §2, §3

Data set [6] concerns the target T1, FGFR2 kinase recombinant protein (Homo sapiens, UniProt P21802).
T1 construct: purchased Promega
Description: Inhibition of FGFR kinase activity, ADP-Glo method. It counts as biochemical. Particulars: 30 min preincubation. As to the method: (§4) The inhibitory activities of the test substances on FGFR kinase were determined by the ADP-Glo method. The human FGFR1, FGFR2 and FGFR4 kinase recombinant proteins and kinase activity assay kit ADP-Glo™ were purchased from Promega, and the FGFR3 kinase recombinant protein was purchased from BPS Bioscience. The test substance, which was diluted gradiently from 1000 nM, was incubated with the FGFR1, FGFR2, FGFR3 or FGFR4 kinase recombinant protein for 30 minutes, reacted with the substrate in the presence of ATP, and ADP-Glo™ detected the generated ADP and further produced chemiluminescence signals. Microplate reader (Perkin Elmer, Envision) were used to determine the reading for each well, and the origin 7.5 was used to calculate and analyze the IC50, i.e. the concentration at which 50% inhibition occurred.
(§5) The inhibition of the compounds of the present invention on FGFR1-4 kinase activity was measured by the above test, and the measured IC50 (nM) values are shown in Table 1.

Data set [7] concerns the target T2, FGFR1 kinase recombinant protein (Homo sapiens, UniProt P11362).
T2 construct: purchased Promega
The data set is described as follows: Inhibition of FGFR kinase activity, ADP-Glo method. It counts as biochemical. The conditions noted are these: 30 min preincubation. As to the method: as §4, §5
A general note: ADP-Glo turns the ADP formed in a reaction into a luminescent signal.

Data set [8] has as its target T3, FGFR3 kinase recombinant protein (Homo sapiens, UniProt P22607).
T3 construct: purchased BPS Bioscience
Description: Inhibition of FGFR kinase activity, ADP-Glo method. The conditions noted are these: 30 min preincubation. It is filed as biochemical. As to the method:
as §4, §5

The target of data set [9] is T4, FGFR4 kinase recombinant protein (Homo sapiens, UniProt P22455).
T4 construct: purchased Promega
T4 sequence (P22455 22-802): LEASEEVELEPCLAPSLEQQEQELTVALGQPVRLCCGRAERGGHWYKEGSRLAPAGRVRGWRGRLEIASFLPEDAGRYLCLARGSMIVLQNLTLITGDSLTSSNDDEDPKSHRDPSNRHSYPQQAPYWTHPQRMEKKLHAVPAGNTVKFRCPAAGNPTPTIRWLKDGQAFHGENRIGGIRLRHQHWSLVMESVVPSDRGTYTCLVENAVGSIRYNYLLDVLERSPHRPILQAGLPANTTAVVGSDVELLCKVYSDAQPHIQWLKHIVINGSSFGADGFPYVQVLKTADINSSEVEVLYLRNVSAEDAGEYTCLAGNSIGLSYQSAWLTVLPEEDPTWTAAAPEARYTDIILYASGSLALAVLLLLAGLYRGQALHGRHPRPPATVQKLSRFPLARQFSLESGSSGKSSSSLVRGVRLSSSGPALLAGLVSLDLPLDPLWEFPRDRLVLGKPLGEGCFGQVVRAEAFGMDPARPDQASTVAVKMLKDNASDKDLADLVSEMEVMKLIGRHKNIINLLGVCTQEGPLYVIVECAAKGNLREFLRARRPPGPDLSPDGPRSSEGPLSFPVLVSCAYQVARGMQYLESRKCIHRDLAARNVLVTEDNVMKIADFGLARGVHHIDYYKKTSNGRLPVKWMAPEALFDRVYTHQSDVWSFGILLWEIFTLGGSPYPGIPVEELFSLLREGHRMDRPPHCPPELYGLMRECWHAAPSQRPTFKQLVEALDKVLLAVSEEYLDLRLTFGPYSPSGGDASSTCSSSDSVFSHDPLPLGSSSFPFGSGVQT
The data set is described as follows: Inhibition of FGFR kinase activity, ADP-Glo method. Particulars: 30 min preincubation. It is filed as biochemical. As for the experimental part:
as §4, §5

Data set [10] concerns HCC cells with FGF19 gene amplification. Description: HCC cell line panel proliferation, selectivity conclusion. It counts as cell-based. The conditions noted are these: conclusion from Table 2. As to the method:
as §1, §2

The subject of data set [11] is Hep3B transplantation tumor. The data set is described as follows: HCC cell subcutaneous transplantation tumor growth inhibition test in nude mice. Particulars: for growth inhibition of the transplantation tumor: 50 mg/kg, intragastric, BID 21 days, Hep3B nude mice; for adverse reactions (water and food take, activity, body weight) during administration: all dose groups 50, 100, 150 mg/kg BID, 21 days, tumor-bearing nude mice. It counts as in vivo. As for the experimental part: The Hep3B cells in the logarithmic growth phase were cultured and collected, and subcutaneously inoculated into the right back of nude mice (female Balb/c Nude mice, from Beijing Vitalriver) at 1×10^7 cells/mouse. When the tumor grew to 50-300 mm^3, tumor-bearing nude mice were randomly grouped, 6 animals per group. Subsequently, each group of animals was administered at the following dose, and the day of the first dose was defined as the first day of the test.
Blank solvent (ultra-pure water) control group, compound 1, compound 2 were respectively set to 50 mg/kg, 100 mg/kg, 150 mg/kg three dose groups, intragastric administration, twice a day (BID), for 21 consecutive days. The state of the animals was observed daily during the administration; the body weight was measured once a week before the first administration; and the body weight was measured twice a week after the start of the administration. The size of the transplantation tumor was measured every 3 days after the start of administration. Tumor volume (TV)=½×a×b^2, wherein, a and b represent the length and width of the tumor, respectively. The relative tumor volume (RTV) was calculated based on the measured results, RTV=Vt/V0×100, wherein V0 is the measured tumor volume on the day of the cage (i.e., day 0), and Vt is the tumor volume at each measurement.
After establishing the Hep3B nude mice transplantation tumor model according to the method described above, the mice were divided into three groups and intragastrically administered with a blank solvent (ultra-pure water) control, compound 1 (15 mg/kg, BID), sorafenib (prepared according to the method described in the literature CN1721397A and identified) respectively, 30 mg/kg, once a day (QD), for 21 consecutive days. The growth inhibition on the transplantation tumor of the test substances, animal status and body weight were evaluated in the same manner as above. The tumor volume (TV) was measured and the tumor inhibition rate was calculated according to the tumor inhibition rate (TGI)=(1−T/C)×100%. C: average tumor volume of the control group; T: average tumor volume of the administration group.

Molecules are shown by their SMILES. pIC50: −log10 of the molar value.

T1 sequence (P21802 22-821): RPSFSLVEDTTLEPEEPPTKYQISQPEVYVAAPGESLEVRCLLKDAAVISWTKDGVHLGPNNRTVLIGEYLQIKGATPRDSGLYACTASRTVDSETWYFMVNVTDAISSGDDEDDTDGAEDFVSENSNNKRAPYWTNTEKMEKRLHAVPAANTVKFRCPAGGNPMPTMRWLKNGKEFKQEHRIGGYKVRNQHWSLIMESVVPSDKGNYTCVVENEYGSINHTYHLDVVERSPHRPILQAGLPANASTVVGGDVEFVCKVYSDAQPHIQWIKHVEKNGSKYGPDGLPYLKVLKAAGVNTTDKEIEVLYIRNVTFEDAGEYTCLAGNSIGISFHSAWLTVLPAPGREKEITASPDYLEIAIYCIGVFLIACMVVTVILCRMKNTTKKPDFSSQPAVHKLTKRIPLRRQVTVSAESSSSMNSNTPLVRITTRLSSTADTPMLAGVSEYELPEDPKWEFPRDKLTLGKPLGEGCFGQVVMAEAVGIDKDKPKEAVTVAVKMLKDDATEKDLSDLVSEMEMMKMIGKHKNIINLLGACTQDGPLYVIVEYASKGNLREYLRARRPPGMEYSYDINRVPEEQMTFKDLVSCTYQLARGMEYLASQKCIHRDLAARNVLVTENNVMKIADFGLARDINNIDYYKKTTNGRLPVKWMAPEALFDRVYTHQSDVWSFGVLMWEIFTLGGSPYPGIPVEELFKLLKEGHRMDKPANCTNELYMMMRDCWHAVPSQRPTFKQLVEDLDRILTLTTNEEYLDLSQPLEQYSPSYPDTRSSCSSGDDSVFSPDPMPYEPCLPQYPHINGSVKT
T3 sequence (P22607 23-806): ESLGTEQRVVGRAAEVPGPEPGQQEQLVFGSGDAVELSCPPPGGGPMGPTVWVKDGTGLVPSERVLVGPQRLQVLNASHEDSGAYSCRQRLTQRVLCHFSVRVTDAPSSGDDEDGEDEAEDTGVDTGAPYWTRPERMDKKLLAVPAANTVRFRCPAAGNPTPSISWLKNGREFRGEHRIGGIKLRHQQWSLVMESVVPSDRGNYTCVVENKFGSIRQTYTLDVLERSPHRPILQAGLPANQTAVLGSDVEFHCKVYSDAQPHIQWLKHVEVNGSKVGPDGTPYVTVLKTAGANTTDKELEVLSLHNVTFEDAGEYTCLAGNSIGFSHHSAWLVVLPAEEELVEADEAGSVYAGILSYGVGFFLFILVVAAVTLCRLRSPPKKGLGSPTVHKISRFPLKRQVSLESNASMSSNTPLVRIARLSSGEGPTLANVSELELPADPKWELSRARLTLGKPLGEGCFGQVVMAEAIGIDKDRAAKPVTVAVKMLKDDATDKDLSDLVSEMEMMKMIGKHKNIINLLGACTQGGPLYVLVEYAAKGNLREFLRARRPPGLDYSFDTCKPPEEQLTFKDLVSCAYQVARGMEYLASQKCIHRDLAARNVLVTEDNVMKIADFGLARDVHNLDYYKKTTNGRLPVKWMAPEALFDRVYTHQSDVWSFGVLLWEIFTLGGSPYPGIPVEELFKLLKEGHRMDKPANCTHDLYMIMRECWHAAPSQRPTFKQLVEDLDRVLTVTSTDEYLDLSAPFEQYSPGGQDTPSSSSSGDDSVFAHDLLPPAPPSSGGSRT
T2 sequence (P11362 22-822): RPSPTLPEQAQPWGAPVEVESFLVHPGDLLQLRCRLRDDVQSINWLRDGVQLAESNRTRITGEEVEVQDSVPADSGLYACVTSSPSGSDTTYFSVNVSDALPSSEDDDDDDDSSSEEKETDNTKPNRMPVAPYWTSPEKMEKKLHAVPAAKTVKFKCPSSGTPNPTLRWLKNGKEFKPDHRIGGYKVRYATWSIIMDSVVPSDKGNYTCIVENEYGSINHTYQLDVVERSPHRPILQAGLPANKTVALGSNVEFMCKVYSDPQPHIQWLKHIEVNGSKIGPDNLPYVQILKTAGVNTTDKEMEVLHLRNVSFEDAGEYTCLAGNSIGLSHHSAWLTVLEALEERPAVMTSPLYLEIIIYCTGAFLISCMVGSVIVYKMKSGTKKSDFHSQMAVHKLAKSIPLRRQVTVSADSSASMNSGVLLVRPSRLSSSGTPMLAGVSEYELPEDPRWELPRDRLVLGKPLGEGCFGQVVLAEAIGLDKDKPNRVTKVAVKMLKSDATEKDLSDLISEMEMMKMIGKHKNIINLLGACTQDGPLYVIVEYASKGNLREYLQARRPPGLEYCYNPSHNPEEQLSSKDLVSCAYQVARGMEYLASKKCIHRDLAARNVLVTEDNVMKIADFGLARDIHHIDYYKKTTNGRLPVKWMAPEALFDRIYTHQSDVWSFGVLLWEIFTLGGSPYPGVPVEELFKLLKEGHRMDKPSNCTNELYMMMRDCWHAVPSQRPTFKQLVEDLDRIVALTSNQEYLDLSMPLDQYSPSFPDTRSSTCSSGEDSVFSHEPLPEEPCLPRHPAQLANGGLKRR

Turning to `C#CCNc1cc(NC(=O)N2CCCc3cc(CN4CCN(C)CC4=O)c(C=O)nc32)ncc1C#N` [Compound 1], the pIC50 (as a rule, −log10 of the IC50, conventionally taken in molar units) in data set [1] was less than 6.00; in data set [2], 9.46; in [3], 8.40; in [4] it was less than 6.00; in data set [5] it was 8.52; in [6] it was less than 6.00. The results for the pIC50 in data set [7], in data set [8] and in data set [9] were less than 6.00, less than 6.00 and 9.39, respectively. For the same molecule, the “selective inhibitory effect on HCC cells with FGF19 gene amplification” value (“selective inhibitory effect on HCC cells” for short) in data set [10] is recorded as “significant selective inhibitory effect”. In data set [11], the “growth inhibition of the transplantation tumor” value is reported as “significant”. For the same molecule, the “adverse reactions (water and food take, activity, body weight) during administration” value in [11] is on record as “no adverse reactions occurred”. For the same molecule, the “efficacy compared with sorafenib 30 mg/kg QD” value in data set [11] (compound 1 15 mg/kg BID, Hep3B nude mouse transplantation tumor model) is “superior to that of sorafenib”.

For `C#CCCCNc1cc(NC(=O)N2CCCc3cc(CN4CCN(C)CC4=O)c(C=O)nc32)ncc1C#N` [Compound 6], the pIC50 in data set [1] was less than 6.00; in data set [2], 9.28; in data set [3] it was 8.31; in [6], less than 6.00; in data set [7], less than 6.00; in data set [8], less than 6.00. In addition, the pIC50 in data set [9] is 9.23. Moreover, the “selective inhibitory effect on HCC cells” value in data set [10] is reported as “significant selective inhibitory effect”.

Take `C#CCCNc1cc(NC(=O)N2CCCc3cc(CN4CCN(C)CC4=O)c(C=O)nc32)ncc1C#N` [Compound 2]: the pIC50 in data set [1] is less than 6.00; in data set [2], 9.40; in data set [3] it was 8.54; in [4] it was less than 6.00; in data set [5] it was 8.59; in data set [6], less than 6.00. For the same molecule, the pIC50 in data set [7] was less than 6.00; in [8], less than 6.00; in data set [9] it was 9.48. Further, the “selective inhibitory effect on HCC cells” value in data set [10] is reported as “significant selective inhibitory effect”. In data set [11], the “growth inhibition of the transplantation tumor” value is “significant”. Further, the “adverse reactions (water and food take, activity, body weight) during administration” value in [11] is recorded as “no adverse reactions occurred”.

For `[2H]C([2H])([2H])N1CCN(Cc2cc3c(nc2C=O)N(C(=O)Nc2cc(NCCC#C)c(C#N)cn2)CCC3)C(=O)C1` [Compound 4], the pIC50 is less than 6.00 in [1]; 9.44 in [2]; 8.55 in [3]; less than 6.00 in data set [6]; less than 6.00 in [7]; less than 6.00 in data set [8]. Besides, the pIC50 in [9] is 9.43. In addition, in data set [10], the “selective inhibitory effect on HCC cells” value is “significant selective inhibitory effect”.

As to `C#CCCNc1cc(NC(=O)N2CCCc3cc(CN4CCOCC4=O)c(C=O)nc32)ncc1C#N` [Compound 3], the pIC50 in [1] is less than 6.00; in [2], 9.21; in data set [3], 8.24; in data set [6] it was less than 6.00; in [7], less than 6.00; in data set [8], less than 6.00. Besides, the pIC50 in data set [9] was 9.21. The “selective inhibitory effect on HCC cells” value in data set [10] is listed as “significant selective inhibitory effect”.
